Structures can show the parent of a compound that is named as a salt. Values belong to the molecule of their own block, whether it stands above or below them.
How the values were obtained:
pentobarbital anesthesia = experiment: Prolongation of pentobarbital anesthesia (Test Example 3); type: in vivo, guinea pig (male Hartley); conditions: for AD (oral dose which prolonged the pentobarbital-induced anesthesia by 15%, AD15): 1 hr before pentobarbital 30 mg/kg s.c.
Excerpt: Sedation is the side effect with the highest incidence in histamine (H1)-blockers and anti-allergic drugs with an H1 blocking effect (Douglas, W. W. (1980) The Pharmacological Basis of Therapeutis, A. Goodman Gilman, L. S. Goodman, A. Gilman (eds), Macmillian, New York) and therefore anti-allergic drugs which overcome this disadvantage are needed. We investigated the effects of test compounds on pentobarbital anesthesia as a method for measuring incidence of sedation in animals.
Prolongation effects on anesthesia are usually investigated with ethanol or thiopental (in mice and rats). However, we investigated it with pentobarbital in guinea pigs because our data with pentobarbital corresponded well with the clinical data, that is, the incidence of sedation of other anti-allergic drugs in clinical use.
Sodium Pentobarbital (30 mg/kg) was subcutaneously injected into the backs of male Hartley guinea pigs weighing approximately 400 g, and the duration of postural reflex abolition was then measured.
Test compounds were administered orally 1 hr before the pentobarbital injection. The prolongation rate obtained with the test compound was calculated by comparison to the control (the duration of pentobarbital anesthesia in animals untreated with the test compounds). In addition, the AD15 value (the oral dose which prolonged the pentobarbital-induced anesthesia by 15%) was determined, and the results are shown in the table.

[1] = system: Passive Cutaneous Anaphylaxis (PCA); experiment: Inhibitory effect on passive cutaneous anaphylaxis (PCA) in rats (Test Example 1"); type: in vivo, rat (male SD); conditions: Rattus norvegicus, po, read-out: Inhibitory rate; for inhibition at 0.05 mg/kg: 0.05 mg/kg (Table 3"); for inhibition at 0.2 mg/kg: 0.2 mg/kg (Table 3"); for inhibition at 3.1 mg/kg: 3.1 mg/kg (Table 3")
Procedure: Male SD rats (5 weeks old) were used as the test animals in groups, each containing 4 animals. The rats were sensitized by intradermal injection of 0.05 ml of the diluted antiserum solution in the dorsal position. […] 60 minutes later they were injected in the caudal vein with 5 ml/kg body weight of physiological saline containing 0.4% w/v of egg albumin and 1.0% w/v of Evans Blue.
(§1) The inhibitory rate was calculated by the following equation.
(§2) Inhibitory rate (%)=(1-B/A)×100
(§3) A: amount of exuded dye in the control group
(§4) B: amount of exuded dye in the test group.

[2] = system: Antigen-induced Bronchoconstriction; experiment: Effect on antigen-induced bronchoconstriction in sensitized guinea pigs (Test Example 2"); type: in vivo, guinea pig (male Hartley); conditions: Cavia porcellus, po, read-out: Inhibitory rate; for inhibition at 0.025 mg/kg: 0.025 mg/kg (Table 4"); for inhibition at 0.1 mg/kg: 0.1 mg/kg (Table 4")
Procedure: (§5) The test animals used were male guinea pigs of the Hartley strain (weighing about 400 to 500 g). These animals were sensitized according to Morris' method [H. R. Morris; Br. J. Pharmac., 67, 179-184 (1979)]. The guinea pigs were injected twice subcutaneously and intraperitoneally, each time with 25 mg of egg albumin (grade 5, Sigma) at weekly intervals. 7 days after the second of these weekly injections, the animals were fasted for one day and then exposed to an aerosol of egg albumin (10 mg/ml). All of the animals so exposed responded with convulsions, indicating respiratory distress due to airway constriction, within 6 minutes.
60 minutes before the egg albumin challenge, one of the test compounds shown in the following Table 4" was administered orally to each of the animals.

eosinophil accumulation = experiment: Inhibitory effect on antigen induced eosinophil accumulation (Test Example 4); type: in vivo, guinea pig (male Hartley); conditions: Cavia porcellus, Eosinophil, po, 1 hr before antigen challenge, BALF 24 hr after;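 further: oral dose 0.1 mg/kg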
Procedure: Male Hartley guinea pigs weighing approximately 400 g were sensitized with ovalbumin by the method described by Engineer et al. (Engineer, D. M. et al., J. Pharmacol., 62, 61-66 (1978)), and the number of eosinophils infiltrating into the bronchoalveolar space due to antigen challenge was examined.
Briefly, the animals were exposed to the antigen (ovalbumin) for 6 min. At 24 hr. after antigen challenge, the guinea pigs were anesthetized with pentobarbital (30 mg/kg, i.p.). The trachea was cannulated by a disposable intravenous catheter, and the airway lumen (especially in the right posterior lobe) was washed with 0.9% saline (10 ml/kg) kept at 37° C. The bronchoalveolar lavage fluid (BALF) from each animal was centrifuged (150 g for 10 min at 4° C.). After removing the supernatant, the cell pellet was resuspended in HBSS (Hank's balanced solution) and a total cell count was performed using a standard hemocytometer. Differential cell counts were done on smears fixed in methanol and stained with Wright-Giemsa solution, and by light microscopy under oil immersion (×1000). The proportion of eosinophil population was expressed as a percentage of total cells, and this ratio together with the total cell count was used to calculate the total number of eosinophils. The percent inhibition of the test compounds which was administered 1 hr before antigen challenge, was calculated as follows:
Percent inhibition=[1-(C-A)/(B-A)]×100
A: negative control: mean value of cell counts in BALF from the animals with inhaled saline
B: positive control: mean value of cell counts in BALF from the animals 24 h after antigen challenge
C: cell counts of BALF for the animals pretreated with a test compound 24 h after antigen challenge

eosinophil chemotaxis = experiment: Inhibitory effect of eosinophil chemotaxis to zymosan-activated serum (Test Example 4); type: cell-based, guinea pig; conditions: Cavia porcellus, Eosinophil, 0.1 μg/ml; ZAS
Excerpt: Eosinophils were harvested from the peritoneal cavity of polymyxin B-treated guinea pigs (body weight, approx. 400 g) according to the method described by Pincus (Pincus, S. H. et al.: Blood, 52, 127-134 (1978)). The eosinophils were separated and purified by Ficoll-paque (Pharmacia) density gradient centrifugation. Then, the eosinophil chemotaxis to zymosan-activated serum (ZAS) was investigated by a modification of the Boyden micropore filter technique (Gosset, P. et al.: Clin. Exp. Immunol., 65, 654-663 (1986)). Briefly, the assay was carried out in a 48-well microchemotaxis assembly (Neuroprobe; Cabin John, Md., U.S.A.). Cell suspensions were adjusted to 2.5×10^5 /50 μl, and placed in the upper chamber separated from the chemoattractant (ZAS) solution in the lower chamber by a 3 μm pore size polycarbonate membrane filter (Nucleopore Co., Pleasanton, U.S.A.). The cells were incubated for 10 min at 37° C. with the test compounds, prior to their addition to the chemotaxis chamber. Migration was carried out at 37° C. in humidified air with 5% CO2 for 2 h. After the incubation, the migrated eosinophils in the lower Chamber were counted by a hemocytometer.
The percentage inhibition obtained with the test compound was calculated by comparison to the positive control (migration of non-treated cells in response to the ZAS), according to the formula:
Percent inhibition=[1-(A/B)]×100
A: (migration with a test compound)-(spontaneous migration)
B: (positive control migration)-(spontaneous migration)

[3] = system: Passive Cutaneous Anaphylaxis (PCA); experiment: Inhibitory effect on passive cutaneous anaphylaxis (PCA) in rats (Test Example 1); type: in vivo, rat (male SD); conditions: Rattus norvegicus, po, read-out: Inhibitory rate
Procedure: Male SD rats (5 weeks old) were used as the test animals in groups, each containing 4 animals. The rats were sensitized by intradermal injection of 0.05 ml of the diluted antiserum solution in the dorsal position. 48 hours after this injection, a suspension of the test compound in an aqueous 0.5% w/v tragacanth solution was orally administered to the rats, fasted for one day, and 60 minutes later they were injected in the caudal vein with 5 ml/kg body weight of physiological saline containing 0.4% w/v egg albumin and 1.0% w/v Evans Blue.
as §1, §2, §3, §4

[4] = system: Antigen-induced Bronchoconstriction; experiment: Effect on antigen-induced bronchoconstriction in sensitized guinea pigs (Test Example 2); type: in vivo, guinea pig (male Hartley); conditions: Cavia porcellus, po, 60 min before challenge, read-out: Inhibitory rate
Procedure: as §5, with “were” for “were injected twice”, “intraperitoneally injected twice,” for “intraperitoneally,”
60 minutes before the egg albumin challenge, one of the test compounds shown in the following Table 5 was administered orally to each of the animals.

- AD (oral dose which prolonged the pentobarbital-induced anesthesia by 15%, AD15) (pentobarbital anesthesia; po, guinea pigs): 59 mg/kg
SMILES: O=C(O)CCCN1CCN2c3ccccc3Cc3ccccc3C2C1 (racemic) [Example 22, 4-(1,2,3,4,10,14b-Hexahydrodibenzo[c,f]pyrazino[1,2-a]azepin-2-yl)butanoic acid]

SMILES: O=C(O)CCCN1CCN2c3ccccc3Cn3cccc3[C@H]2C1 [3"]
- inhibition at 0.05 mg/kg [1]: 66%
- inhibition at 0.2 mg/kg [1]: 72%
- inhibition at 0.025 mg/kg [2]: 60%
- inhibition at 0.1 mg/kg [2]: 100%

SMILES: O=C(O)CCCN1CCN2c3ccccc3Cc3ccccc3[C@@H]2C1 [22 HCl R-isomer]
- inhibition at 0.05 mg/kg [1]: 55%
- inhibition at 0.2 mg/kg [1]: 67%
- inhibition at 0.1 mg/kg (eosinophil accumulation): 59%
- inhibition at 0.025 mg/kg [2]: 40%
- inhibition at 0.1 mg/kg [2]: 80%
- inhibition at 0.4 mg/kg ([2]; 0.4 mg/kg (Table 4")): 100%
- inhibition at 0.1 µg/mL (eosinophil chemotaxis): 53%

- AD (oral dose which prolonged the pentobarbital-induced anesthesia by 15%, AD15) (pentobarbital anesthesia; po, guinea pigs): 123 mg/kg
- amount of R-isomer required as compared with the racemate for the same prolongation time (pentobarbital anesthesia; ratio to racemate, po, guinea pigs): about double
SMILES: O=C(O)CCCN1CCN2c3ccccc3Cc3ccccc3[C@@H]2C1 [22 R-isomer]
- prolongation of anesthesia side effect (pentobarbital anesthesia; in words): extremely low

- AD (oral dose which prolonged the pentobarbital-induced anesthesia by 15%, AD15) (pentobarbital anesthesia; po, guinea pigs): 75 mg/kg
SMILES: O=C(O)CCCN1CCN2c3ccccc3Cc3ccccc3[C@H]2C1 [22 S-isomer]

SMILES: NC(=O)COCCN1CCN2c3ccccc3Cc3ccccc3C2C1 (centres unmarked) [Example 26, 2-(1,2,3,4,10,14b-Hexahydrodibenzo[c,f]pyrazino[1,2-a]azepin-2-yl)ethoxyacetamide]
- inhibition at 0.05 mg/kg [3]: 44%
- inhibition at 0.2 mg/kg [3]: 63%
- inhibition at 0.4 mg/kg ([4]; 0.4 mg/kg): 80%

SMILES: O=C(O)COCCN1CCN2c3ccccc3Cc3ccccc3[C@H]2C1 [Example 59, (S)-2-(1,2,3,4,10,14b-Hexahydrodibenzo[c,f]pyrazino[1,2-a]azepin-2-yl)ethoxyacetic Acid]
- inhibition at 0.05 mg/kg [3]: 59%
- inhibition at 0.2 mg/kg [3]: 74%
- inhibition at 0.05 mg/kg ([4]; 0.05 mg/kg): 60%

SMILES: O=C(O)COCCN1CCN2c3ccccc3Cc3ccccc3[C@@H]2C1 [Example 65, (R)-2-(1,2,3,4,10,14b-hexahydrodibenzo[c,f]pyrazino[1,2-a]azepin-2-yl)ethoxyacetic acid monohydrate]
- inhibition at 0.05 mg/kg [3]: 45%
- inhibition at 0.4 mg/kg ([3]; 0.4 mg/kg): 58%
- inhibition at 0.1 mg/kg ([4]; 0.1 mg/kg): 60%

SMILES: OCCN1CCN2c3ccccc3Cn3cccc3C2C1 (centres unmarked) [Prior art compound D, 2-(2-hydroxyethyl)-1,3,4,14b-tetrahydro-2H, 10H-pyrazino[1,2-a]pyrrolo[2,1-c][1,4]benzodiazepine, reference compound]
- inhibition at 3.1 mg/kg [3]: 30%
- inhibition at 3.1 mg/kg [1]: 30%

SMILES: NC(=O)CCN1CCN2c3ccccc3Cc3ccccc3C2C1 (centres unmarked) [Prior art compound F, 2-(2-carboxamidoethyl)-1,2,3,4,10,14b-hexahydrodibenzo[c,f]pyrazino[1,2-a]azepine, reference compound]
- inhibition at 3.1 mg/kg [3]: 52%
- inhibition at 3.1 mg/kg [1]: 52%
